Results: patent US20100286226A1, “COMBINATION THERAPY RELATED TO SEROTONIN DUAL ACTION COMPOUNDS” (H. LUNDBECK A/S, priority 2007, published 2010)

Tests used:
[1] = test system: ultrasonic vocalization; conditions: rat, cited from earlier work
[2] = test system: dorsal raphe 5-HT neurons; experiment: Inhibitory effect on the firing activity of dorsal raphe 5-HT neurons (extracellular unitary recordings, anesthetized rats); type: in vivo, rat
Description: The experiments were carried out in male Sprague-Dawley rats (Harlan, Gannat, FRANCE) weighing 250 to 300 g at the day of the experiment and which have been kept under standard laboratory conditions (12:12 light-dark cycle with free access to food and water). The animals were anesthetized with chloral hydrate (400 mg/kg, i.p.). Supplemental doses were given to maintain constant anesthesia and to prevent any nociceptive reaction to a tail pinch.
Extracellular unitary recordings of dorsal raphe 5-HT neurons were performed with single-barreled glass micropipettes preloaded with fiberglass filaments in order to facilitate filling. The tip was broken back to 2 to 4 μm and filled with a 2M NaCl solution saturated with Blue Chicago dye. The rats (control or treated) were placed in a stereotaxic frame and a burr hole was drilled on the midline 1 mm anterior to lambda. Dorsal raphe 5-HT neurons were encountered over a distance of 1 mm starting immediately below the ventral border of the Sylvius aqueduct. These neurons were identified using the criteria of Aghajanian (Aghajanian, G. K., Essays Neurochem Neuropharmacol 2000, 3: 1-32): a slow (0.5-2.5 Hz) and regular firing rate and long-duration (0.8-1.2 ms) positive action potentials.
To determine putative synergistic effect of Compound II (2-(6-Fluoro-1H-indol-3-ylsulfanyl)-benzyl]-methyl-amine) on the inhibitory action of 5-HTP (25 mg/kg, i.v.) on the firing activity of dorsal raphe 5-HT neurons, a dose of Compound II corresponding to 20-30% of inhibition, was injected prior to and after the administration of 5-HTP.
Statistical analysis was performed with SigmaStat for Window version 4.0 software (Jandel Corporation). Average was the mean±SEM. Significance was considered for p<0.05.

[3] = biological target: allosteric site of SERT (Homo sapiens, UniProt P31645); experiment: Dissociation binding studies (3H-escitalopram), allosteric modulation of the serotonin transporter
Description: Whether a compound operates through an allosteric mechanism can be determined by in vitro dissociation experiments. Dissociation binding experiments measure the “off rate” (koff) for a radioligand of the protein. After radioligand and transporter protein are allowed to bind (i.e. form a complex), then ligand is added to block further binding of radioligand to the transporter so that the rate of dissociation can be measured. Binding (as measured by radioactivity of the radioligand:transporter complex) is measured at various times to determine the rate at which the radioligand dissociates from the transporter. Dissociation rate constants can be used to determine the half-life of the bound complex. Half-life determinations can be used to ascertain whether a compound is an allosteric modulator of the human SERT.

[4] = biological target: norepinephrine transporter (NET) (Homo sapiens, UniProt P23975); experiment: In vitro reuptake inhibitory potency at the norepinephrine transporter; type: biochemical
[5] = biological target: T1, serotonin transporter (Rattus norvegicus, UniProt P31652); experiment: Inhibition of 3H-serotonin uptake in rat brain synaptosomes; type: biochemical; conditions: 3H-5-HT 10 nM, read-out: uptake inhibitory potency (IC50)
T1 construct: The P2 fraction (synaptosomal fraction) was obtained by centrifugation; from tissue; host or cells: Male Wistar rat brain (minus cerebellum), P2 synaptosomal fraction
Description: In order to test compounds at the primary, high-affinity binding site of the serotonin transporter, i.e. determine if a compound is a serotonin reuptake inhibitor, inhibition of the uptake of serotonin (5-HT) was determined.
By the following method, the inhibition of the uptake of ^3H-serotonin (^3H-5-HT) (10 nM) in rat brain synaptosomes by test compounds was determined in vitro. Exemplary methods, and also results of serotonin uptake for specific SRIs, is described in Hyttel, J., Psychopharmacology 1978, 60:13-18; Hyttel, J., Prog. Neuro-Psychopharmacol. & Biol. Psychait. 1982, 6:277-295; Hyttel, J. & Larsen, Acta Pharmacol. Tox. 1985, 56(suppl. 1):146-153; Sanchez, C. and Hyttel, J. European J. Pharm. […]
To 400 μl of the synaptosomal suspension (5 mg original tissue) on ice, 100 μl test compound in water was added. […] After shaking for 1 h and storage for 2 h in the dark, the content of radioactivity was determined by liquid scintillation counting (cpm). Uptake was obtained by subtracting the non-specific binding and passive transport measured in the presence of 10 μM […]. The measured cpm was plotted against test compound concentration, and the best fitting s-shaped curve was drawn. The uptake inhibitory potencies are expressed as IC50 values in nM (logarithmic means). Two full concentration-response curves were measured using five concentrations of test compound in triplicate.

[6] = test system: isolation-induced aggression; conditions: mouse, with subeffective dose of L; cited from earlier work
[7] = biological target: human serotonin transporter expressed in COS-1 cell membranes (Homo sapiens, UniProt P31645); conditions: cited from earlier work
Sequence of human serotonin transporter expressed in COS-1 cell membranes (P31645 whole entry): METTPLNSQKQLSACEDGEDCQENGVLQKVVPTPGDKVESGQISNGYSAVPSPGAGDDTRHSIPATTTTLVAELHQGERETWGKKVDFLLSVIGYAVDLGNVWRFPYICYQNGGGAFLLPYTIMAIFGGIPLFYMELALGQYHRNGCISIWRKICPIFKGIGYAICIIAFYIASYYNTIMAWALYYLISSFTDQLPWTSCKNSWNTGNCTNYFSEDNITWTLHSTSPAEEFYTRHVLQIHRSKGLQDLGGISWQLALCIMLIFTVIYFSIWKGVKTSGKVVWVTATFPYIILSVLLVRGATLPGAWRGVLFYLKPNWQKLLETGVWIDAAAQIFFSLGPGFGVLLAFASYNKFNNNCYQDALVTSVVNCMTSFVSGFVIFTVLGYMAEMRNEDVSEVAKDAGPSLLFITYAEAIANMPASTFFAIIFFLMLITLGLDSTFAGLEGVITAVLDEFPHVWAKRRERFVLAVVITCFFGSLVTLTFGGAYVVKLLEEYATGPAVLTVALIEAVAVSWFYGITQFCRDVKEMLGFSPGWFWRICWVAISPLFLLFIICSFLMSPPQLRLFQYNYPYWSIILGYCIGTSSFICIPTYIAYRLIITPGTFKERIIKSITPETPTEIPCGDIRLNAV

Sequence of allosteric site of SERT (P31645 whole entry): as above
Sequence of norepinephrine transporter (NET) (P23975 whole entry, species assumed): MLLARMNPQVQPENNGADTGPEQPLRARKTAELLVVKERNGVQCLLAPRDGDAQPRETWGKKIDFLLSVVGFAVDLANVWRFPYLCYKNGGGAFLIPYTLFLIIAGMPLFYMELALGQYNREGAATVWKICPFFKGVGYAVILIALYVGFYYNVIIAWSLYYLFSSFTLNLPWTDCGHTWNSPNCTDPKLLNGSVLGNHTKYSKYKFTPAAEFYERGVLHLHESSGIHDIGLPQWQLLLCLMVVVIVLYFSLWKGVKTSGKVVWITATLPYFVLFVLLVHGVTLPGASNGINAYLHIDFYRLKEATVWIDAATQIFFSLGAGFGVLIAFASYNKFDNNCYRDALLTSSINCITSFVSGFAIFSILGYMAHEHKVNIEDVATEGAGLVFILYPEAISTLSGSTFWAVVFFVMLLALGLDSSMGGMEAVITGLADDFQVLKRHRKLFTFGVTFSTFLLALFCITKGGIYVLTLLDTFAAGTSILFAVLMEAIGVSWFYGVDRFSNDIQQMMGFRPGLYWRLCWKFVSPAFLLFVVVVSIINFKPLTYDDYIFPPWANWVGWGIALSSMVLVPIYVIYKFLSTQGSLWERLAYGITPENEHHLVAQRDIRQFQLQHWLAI
T1 sequence (P31652 whole entry): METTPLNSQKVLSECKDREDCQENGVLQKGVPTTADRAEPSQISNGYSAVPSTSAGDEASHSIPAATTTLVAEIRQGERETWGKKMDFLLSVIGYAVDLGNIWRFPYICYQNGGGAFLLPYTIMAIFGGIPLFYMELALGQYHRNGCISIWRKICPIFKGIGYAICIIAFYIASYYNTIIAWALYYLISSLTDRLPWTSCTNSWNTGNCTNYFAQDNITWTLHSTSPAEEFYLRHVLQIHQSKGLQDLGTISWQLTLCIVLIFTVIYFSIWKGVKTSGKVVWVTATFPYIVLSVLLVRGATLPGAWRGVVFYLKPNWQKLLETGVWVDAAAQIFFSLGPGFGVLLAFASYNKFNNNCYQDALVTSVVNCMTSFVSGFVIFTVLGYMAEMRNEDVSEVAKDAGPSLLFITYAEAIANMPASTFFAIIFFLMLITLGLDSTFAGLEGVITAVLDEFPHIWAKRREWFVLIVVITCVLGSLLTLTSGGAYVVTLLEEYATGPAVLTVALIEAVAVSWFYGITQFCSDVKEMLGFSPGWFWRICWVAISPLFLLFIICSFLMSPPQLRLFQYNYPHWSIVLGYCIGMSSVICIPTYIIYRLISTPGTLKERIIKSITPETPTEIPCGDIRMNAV

## CN(C)CCC[C@@]1(c2ccc(F)cc2)OCc2cc(C#N)ccc21 [escitalopram]
[1]; co-treatment with L, 5-HTP
  anxiolytic response to co-treatment with L, 5-HTP: markedly enhanced

## COc1ccccc1N1CCN(CCN(C(=O)C2CCCCC2)c2ccccn2)CC1 [WAY-100635]
[2]; administered after Compound II and 5-HTP
  effect on spontaneous firing rate of the neuron: increases the spontaneous firing rate

## CN(C)CCC[C@]1(c2ccc(F)cc2)OCc2cc(C#N)ccc21 [R-citalopram]
[1]; concomitant treatment
  ultrasonic vocalization compared to controls: significant increase

## CNCc1ccccc1Sc1c[nH]c2cc(F)ccc12 [Compound II]
[3]
  effect on dissociation rate of 3H-escitalopram: significantly slowed
[4]
  inhibitory effect at NET (in vitro reuptake inhibitory potency): exerts an inhibitory effect
[5]
  IC50: 0.35 nM
[2]; Compound II 0.025 mg/kg as second injection after 5-HTP 25 mg/kg, six rats
  further decrease of firing: 82.43±2.78%
[2]; Rattus norvegicus, Neuron, Compound II 0.025 mg/kg alone (first injection), six rats, mean±SEM
  inhibition at 0.025 mg/kg: 24.1 ± 4.98%

## Fc1ccc([C@@H]2CCNC[C@H]2COc2ccc3c(c2)OCO3)cc1 [paroxetine]
[6]
  antiaggressive effect on co-administration of a subeffective dose of L, 5-HTP: greatly potentiated

## NC(Cc1c[nH]c2ccc(O)cc12)C(=O)O (stereo not drawn) [Compound 5-HTP, 2-amino-3-(5-hydroxy-1H-indol-3-yl)-propanoic acid]
[2]; 5-HTP 25 mg/kg i.v. alone (first injection), six rats, mean±SEM
  reduction of dorsal raphe 5-HT neuron firing: 13.4±2.26%
[2]; 5-HTP 25 mg/kg injected after Compound II 0.025 mg/kg, six rats
  further decrease of firing: 70.53±2.76%

## CNCC[C@H](Oc1cccc2ccccc12)c1cccs1 [duloxetine]
[7]
  stabilizing effect on radioligand:human serotonin transporter complex (dissociation from primary site): little or no stabilizing effect
